# US4252804A, “Therapeutically useful 3,4,5-trimethoxybenzene derivatives” (Metabio-Joullie, priority 1977, dated 1981)
# How the values were obtained:
# Assay type in all cases: in vivo
# [1] = Acute toxicity for oral administration in mice; settings: mouse, in vivo, suspension in 10% gum arabic
# Procedure: (§1) 1--ACUTE TOXICITY FOR ORAL ADMINISTRATION IN MICE
# (§2) The compounds are administered orally in increasing doses in suspension in a 10% gum arabic solution to groups of 5 .female. mice of mean weight 25 g. The 50% lethal doses (LD 50) are calculated by the method of KARBER and BEHRENS (Arch. Exp. Path. Pharmakol. 1935, 177, 379-388).
# (§3) The LD 50's found are summarised in Table IV below and indicate that the tested compounds have low toxicity.
# [2] = test system: spontaneous motor activity; assay: Action on spontaneous motor activity in the mouse (BOISSIER); settings: po, 0.5 h, 30 minutes after administration, vs control, read-out: Percentage variation in motor activity; for change in vivo at 500 mg/kg: 500 mg/kg p.o.
# Procedure: 2.1--Action on spontaneous motor activity in the mouse
# 30 minutes after administration per os of the test compounds, the mice (groups of 12 animals) are installed in individual cages in a BOISSIER activity measuring cupboard and move about before two photoelectric cells placed according to the rectangular coordinates. Meters register the movement during 20 minutes.
# [3] = test system: pentobarbital hypnosis time; assay: Action on the pentobarbital hypnosis time in the mouse; settings: po, 0.5 h, 30 minutes before pentobarbital 50 mg/kg i.v., vs control, read-out: Percentage variation in pentobarbital hypnosis time
# Excerpt: 2.2--Action on the pentobarbital hypnosis time in the mouse
# The hypnosis time of each mouse is counted in minutes from the moment when the animal may be placed without resistance on its back until that when it spontaneously gets back on its feet.
# [4] = test system: convulsant effects of strychnine; assay: Action against the convulsant effects of strychnine in the mouse; settings: 30 minutes before strychnine 1.5 mg/kg s.c.
# Procedure: (§4) 2.3--Test on the action against the convulsant effects of electric shock and of strychnine in the mouse
# (§5) 30 minutes after administration of the compounds to groups of 10 animals, there is investigated the protection induced against:
# convulsive crisis and death provoked by injection of strychnine at a limiting lethal dose of 1.5 mg/kg s.c.
# (§6) The results are expressed as a percentage of protection based on a control group which have only received the administration vehicle for the compounds.
# [5] = test system: convulsant effects of electric shock; assay: Action against the convulsant effects of electric shock in the mouse; settings: po, 0.5 h, 30 minutes before shock, 13 to 16 mA for 0.1 sec, read-out: Percentage protection against the convulsant effects of the electric shock; for responders at 500 mg/kg: 500 mg/kg p.o.
# Procedure: as §4, §5
# tonic crisis (extension of rear feet) provoked by supramaximal transcranial electric stimulation (13 to 16 mA for 0.1 sec).
# as §6
# [6] = test system: mice; assay: Acute toxicity for oral administration in mice; settings: suspension in 10% gum arabic
# Procedure: as §1, §2, §3
smiles,measurement,setting,value
COc1cc(NC(=O)N(C)C2CCCC2)cc(OC)c1OC [compound 801],LD50,[1]; po,2500 mg/kg
same,change in vivo at 250 mg/kg,[2]; 250 mg/kg p.o.,-29%
same,change in vivo at 250 mg/kg,[3]; 250 mg/kg p.o.,70%
same,Percentage protection against the convulsant effects of strychnine,[4]; 250 mg/kg p.o.,100%
same,responders at 250 mg/kg,[5]; 250 mg/kg p.o.,37%
COc1cc(OC(=O)N2CCOCC2)cc(OC)c1OC [compound 754],LD50,[1],5000 mg/kg
same,change in vivo at 500 mg/kg,[2],-41%
same,change in vivo at 500 mg/kg,[3]; 500 mg/kg p.o.,178%
same,Percentage protection against the convulsant effects of strychnine,[4]; 500 mg/kg p.o.,100%
same,responders at 500 mg/kg,[5],90%
COc1cc(NC(=O)CN2CCOCC2)cc(OC)c1OC [compound 833],LD50,[6],3000 mg/kg
COc1cc(NC(=O)N2CCOCC2)cc(OC)c1OC [compound 733],LD50,[1]; po,4000 mg/kg
same,change in vivo at 400 mg/kg,[2]; 400 mg/kg p.o.,-74%
same,change in vivo at 400 mg/kg,[3]; 400 mg/kg p.o.,164%
same,Percentage protection against the convulsant effects of strychnine,[4]; 400 mg/kg p.o.,100%
same,responders at 400 mg/kg,[5]; 400 mg/kg p.o.,30%
COc1cc(NC(=O)N2CC=CCC2)cc(OC)c1OC [compound 819],LD50,[1]; po,5000 mg/kg
same,change in vivo at 500 mg/kg,[2],-18%
same,Percentage protection against the convulsant effects of strychnine,[4]; 500 mg/kg p.o.,70%
same,responders at 500 mg/kg,[5],40%
COc1cc(NC(=O)N(C)C)cc(OC)c1OC [compound 775],LD50,[1]; po,1700 mg/kg
same,change in vivo at 170 mg/kg,[2]; 170 mg/kg p.o.,-40%
same,change in vivo at 170 mg/kg,[3]; 170 mg/kg p.o.,149%
same,Percentage protection against the convulsant effects of strychnine,[4]; 170 mg/kg p.o.,33%
